Test results from ChEMBL document CHEMBL1201862, “PubChem BioAssay data set” (2004).
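Interpolation was linear, between the two tested concentrations surrounding the appropriate level; five concentrations were tested over 48 hours in 96-well plates. Abbreviation: GI50, concentration required for 50% inhibition of growth.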 Active and inactive are the calls of the source. Rule as the data show it: active = GI50 up to about 1.1 µM and inactive = higher.

Legend:
Experiment in all cases: inhibition of tumour cell growth, NCI panel, 48 h
UACC-257 = tested on: UACC-257
PC-3 = tested on: PC-3
SF-268 = tested on: SF-268
OVCAR-5 = tested on: OVCAR-5
NCI-H460 = tested on: NCI-H460
SF-295 = tested on: SF-295
MDA-N = tested on: MDA-N
KM12 = tested on: KM12
786-0 = tested on: 786-0
A498 = tested on: A498
BT-549 = tested on: BT-549
RPMI-8226 = tested on: RPMI-8226
OVCAR-8 = tested on: OVCAR-8
SK-MEL-28 = tested on: SK-MEL-28
NCI-H23 = tested on: NCI-H23
M14 = tested on: M14
NCI-H226 = tested on: NCI-H226
SK-MEL-5 = tested on: SK-MEL-5
OVCAR-4 = tested on: OVCAR-4
TK-10 = tested on: TK-10

CC(=O)OCC(OC(C)=O)C1C[C@H]2O[C@@H]3[C@H](C[C@H]2O1)O[C@@]1(C[C@@H]3C)C[C@H](C)[C@@H]2O[C@]3(C[C@@H]2O1)C[C@H]1O[C@H]2[C@H](C)[C@H]4OC(=O)CC5CC[C@H]6OC7[C@H]8O[C@]9(CC[C@H]%10CC(O)(CO)[C@H](CC[C@H]%11C[C@@H](C)C(O)(CO)C(C[C@@H]4O[C@H]2C[C@H]1O3)O%11)O%10)CC8O[C@@H]7[C@@H](O9)[C@H]6O5 (stereo partly drawn)
GI50 (UACC-257): 0.00555 µM (active) | GI50 (PC-3): 0.00614 µM (active) | GI50 (SF-268): 0.00986 µM (active) | GI50 (OVCAR-5): > 0.27 µM (active) | GI50 (NCI-H460): 0.00371 µM (active) | GI50 (SF-295): 0.0043 µM (active) | GI50 (MDA-N): 0.00083 µM (active) | GI50 (KM12): 0.00415 µM (active) | GI50 (786-0): 0.00532 µM (active) | GI50 (A498): > 0.214 µM (active) | GI50 (BT-549): 0.00185 µM (active) | GI50 (RPMI-8226): 0.00282 µM (active) | GI50 (OVCAR-8): 0.0121 µM (active) | GI50 (SK-MEL-28): 0.0303 µM (active) | GI50 (NCI-H23): 0.00496 µM (active) | GI50 (M14): 0.00935 µM (active) | GI50 (NCI-H226): 0.0122 µM (active) | GI50 (SK-MEL-5): 0.00141 µM (active)

O=C1CC(C(OCc2ccccc2)C(OCc2ccccc2)C(OCc2ccccc2)C(COCc2ccccc2)OCc2ccccc2)CC(=O)N1 (stereo not drawn)
GI50 (UACC-257): > 100 µM (inactive) | GI50 (PC-3): > 100 µM (inactive) | GI50 (SF-268): > 100 µM (inactive) | GI50 (OVCAR-5): > 100 µM (inactive) | GI50 (NCI-H460): > 100 µM (inactive) | GI50 (SF-295): > 100 µM (inactive) | GI50 (MDA-N): > 100 µM (inactive) | GI50 (786-0): > 100 µM (inactive) | GI50 (A498): > 100 µM (inactive) | GI50 (BT-549): > 100 µM (inactive) | GI50 (RPMI-8226): > 100 µM (inactive) | GI50 (OVCAR-8): > 100 µM (inactive) | GI50 (SK-MEL-28): > 100 µM (inactive) | GI50 (NCI-H23): > 100 µM (inactive) | GI50 (M14): > 100 µM (inactive) | GI50 (OVCAR-4): > 100 µM (inactive) | GI50 (TK-10): > 100 µM (inactive) | GI50 (SK-MEL-5): > 100 µM (inactive)

CC(=O)OCC1OC(n2c(N)c(C#N)c(-c3cccc(Cl)c3)c(C#N)c2=S)C(OC(C)=O)C(OC(C)=O)C1OC(C)=O (stereo not drawn)
GI50 (UACC-257): 22 µM (inactive) | GI50 (PC-3): 24.9 µM (inactive) | GI50 (SF-268): 13.3 µM (inactive) | GI50 (OVCAR-5): 44.8 µM (inactive) | GI50 (NCI-H460): 24.8 µM (inactive) | GI50 (SF-295): 31.2 µM (inactive) | GI50 (MDA-N): 19.1 µM (inactive) | GI50 (KM12): 15.5 µM (inactive) | GI50 (786-0): 22.2 µM (inactive) | GI50 (A498): 20.6 µM (inactive) | GI50 (BT-549): 20.7 µM (inactive) | GI50 (RPMI-8226): 10.9 µM (inactive) | GI50 (OVCAR-8): 14.9 µM (inactive) | GI50 (SK-MEL-28): 38.7 µM (inactive) | GI50 (NCI-H23): 24.2 µM (inactive) | GI50 (M14): 22.4 µM (inactive) | GI50 (OVCAR-4): 16.7 µM (inactive) | GI50 (TK-10): 19.9 µM (inactive) | GI50 (SK-MEL-5): 14.3 µM (inactive)

COc1ccc(C2=Nn3c(C)nnc3S/C2=C\c2ccc(-c3ccc([N+](=O)[O-])cc3)o2)cc1
GI50 (UACC-257): 17.3 µM (inactive) | GI50 (PC-3): 9.84 µM (inactive) | GI50 (SF-268): 12.3 µM (inactive) | GI50 (OVCAR-5): 18.4 µM (inactive) | GI50 (NCI-H460): 14.9 µM (inactive) | GI50 (SF-295): 38 µM (inactive) | GI50 (MDA-N): 6.62 µM (inactive) | GI50 (KM12): 16.1 µM (inactive) | GI50 (786-0): 4.94 µM (inactive) | GI50 (A498): 31.2 µM (inactive) | GI50 (BT-549): 5.86 µM (inactive) | GI50 (RPMI-8226): 3.22 µM (inactive) | GI50 (OVCAR-8): 3.62 µM (inactive) | GI50 (NCI-H23): 13.9 µM (inactive) | GI50 (M14): 17.7 µM (inactive) | GI50 (OVCAR-4): 22.2 µM (inactive) | GI50 (TK-10): 13.7 µM (inactive) | GI50 (NCI-H226): 27.2 µM (inactive) | GI50 (SK-MEL-5): 19 µM (inactive)

Nc1cc(N2CCOCC2)nc(=O)n1-c1ccc(Cl)cc1
GI50 (UACC-257): > 100 µM (inactive) | GI50 (PC-3): > 100 µM (inactive) | GI50 (OVCAR-5): > 100 µM (inactive) | GI50 (NCI-H460): > 100 µM (inactive) | GI50 (SF-295): > 100 µM (inactive) | GI50 (MDA-N): > 100 µM (inactive) | GI50 (KM12): > 100 µM (inactive) | GI50 (786-0): > 100 µM (inactive) | GI50 (A498): > 100 µM (inactive) | GI50 (BT-549): > 100 µM (inactive) | GI50 (RPMI-8226): > 100 µM (inactive) | GI50 (OVCAR-8): > 100 µM (inactive) | GI50 (SK-MEL-28): > 100 µM (inactive) | GI50 (NCI-H23): > 100 µM (inactive) | GI50 (M14): > 100 µM (inactive) | GI50 (NCI-H226): > 100 µM (inactive) | GI50 (SK-MEL-5): > 100 µM (inactive)

COc1ccc(/C=N/Nc2nnc3c(n2)c2ccccc2c2nn(-c4ccccc4Cl)nc23)cc1
GI50 (UACC-257): > 100 µM (inactive) | GI50 (PC-3): > 100 µM (inactive) | GI50 (SF-268): > 100 µM (inactive) | GI50 (OVCAR-5): > 100 µM (inactive) | GI50 (SF-295): > 100 µM (inactive) | GI50 (MDA-N): > 100 µM (inactive) | GI50 (KM12): > 100 µM (inactive) | GI50 (786-0): > 100 µM (inactive) | GI50 (A498): > 100 µM (inactive) | GI50 (BT-549): > 100 µM (inactive) | GI50 (RPMI-8226): > 100 µM (inactive) | GI50 (OVCAR-8): > 100 µM (inactive) | GI50 (SK-MEL-28): > 100 µM (inactive) | GI50 (NCI-H23): > 100 µM (inactive) | GI50 (M14): > 100 µM (inactive) | GI50 (OVCAR-4): > 100 µM (inactive) | GI50 (TK-10): > 100 µM (inactive) | GI50 (NCI-H226): > 100 µM (inactive) | GI50 (SK-MEL-5): > 100 µM (inactive)

N=c1oc2ccc3ccccc3c2cc1C(N)=O
GI50 (UACC-257): > 100 µM (inactive) | GI50 (PC-3): 18.7 µM (inactive) | GI50 (SF-268): 31.4 µM (inactive) | GI50 (OVCAR-5): > 100 µM (inactive) | GI50 (NCI-H460): 46.3 µM (inactive) | GI50 (MDA-N): 37.1 µM (inactive) | GI50 (KM12): 16.7 µM (inactive) | GI50 (786-0): 34 µM (inactive) | GI50 (A498): 43.7 µM (inactive) | GI50 (BT-549): 89.7 µM (inactive) | GI50 (RPMI-8226): > 100 µM (inactive) | GI50 (OVCAR-8): 80.5 µM (inactive) | GI50 (SK-MEL-28): 44.5 µM (inactive) | GI50 (NCI-H23): 48.6 µM (inactive) | GI50 (M14): 55.5 µM (inactive) | GI50 (OVCAR-4): 58.6 µM (inactive) | GI50 (NCI-H226): 15.3 µM (inactive) | GI50 (SK-MEL-5): 46.1 µM (inactive)
